Assay results published in paper PMC5650142, “GPR40 partial agonists and AgoPAMs: Differentiating effects on glucose and hormonal secretions in the rodent” (PLoS ONE, 2017).
Where “and” joins values, the source holds several entries; their conditions need not be identical. Equal values may be shown once. Read-outs that look alike come from different tables or passages of the source.

Tests used:
[1] = target: T1, mouse GPR40 (Mus musculus, UniProt Q76JU9); assay: Mouse GPR40 IP1 accumulation assay; assay type: cell-based; settings: for Efficacy (% Activation), Mouse: maximal % activity vs in-house partial agonist control
T1 construct: expressed in transfected cells; host or cells: CHO-K1 (methods)
T1 sequence (Q76JU9 whole entry): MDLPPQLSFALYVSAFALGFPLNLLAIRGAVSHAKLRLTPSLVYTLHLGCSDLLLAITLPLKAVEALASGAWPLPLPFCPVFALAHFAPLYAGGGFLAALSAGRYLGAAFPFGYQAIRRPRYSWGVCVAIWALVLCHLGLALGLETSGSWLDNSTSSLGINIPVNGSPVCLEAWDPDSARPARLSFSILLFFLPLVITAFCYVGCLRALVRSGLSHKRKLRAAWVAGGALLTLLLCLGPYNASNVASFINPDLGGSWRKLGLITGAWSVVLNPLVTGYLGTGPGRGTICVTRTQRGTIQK
How it was run: (§1)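 IP1 accumulation is measured by HTRF after 60 min compound stimulation at room temperature in LiCl (50 mM)-containing buffer. Compounds run in ½-log dilutions from a final top concentration of 10 μM or 1 μM. Cells are hGPR40/HEK293, mGPR40/CHO-K1 and rGPR40/CHO-K1. Activity is scaled between DMSO and a partial allosteric agonist and fitted to a 4-parameter curve for EC50 and maximum.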

[2] = target: T2, human GPR40 (Homo sapiens, UniProt O14842); assay: Human GPR40 IP1 accumulation assay; assay type: cell-based; set-up: expressed in transfected cells; settings: for Efficacy (% Activation), Human: maximal % activity vs in-house partial agonist control
T2 sequence (O14842 whole entry): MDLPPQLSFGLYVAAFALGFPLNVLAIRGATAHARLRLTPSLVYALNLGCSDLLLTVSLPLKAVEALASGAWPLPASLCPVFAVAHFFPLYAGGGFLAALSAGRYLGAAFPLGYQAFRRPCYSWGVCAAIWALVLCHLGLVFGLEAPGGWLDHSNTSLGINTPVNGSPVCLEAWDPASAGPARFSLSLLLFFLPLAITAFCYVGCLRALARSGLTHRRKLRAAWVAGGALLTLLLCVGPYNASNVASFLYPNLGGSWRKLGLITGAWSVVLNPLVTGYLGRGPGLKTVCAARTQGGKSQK
Description: Stable cell lines expressing human GPR40 (hGPR40/HEK293), mouse GPR40 (mGPR40/CHO-K1), and rat GPR40 (rGPR40/CHO-K1) were cultured in DMEM media supplemented with 10% FBS, glutamine, non-essential amino acids, and penicillin/streptomycin. hGPR40/HEK293 & mGPR40/CHO-K1 cell media was supplemented with […] G418 (Life Technologies), while rGPR40/CHO-K1 cells were grown in […] blasticidin plus […] hygromycin (Life Technologies). Cell stocks were maintained and grown in a sub-confluent state using standard cell culture procedures. The day before the experiment, the cells were harvested with non-enzymatic cell dissociation buffer and re-suspended in DMEM supplemented with 10% FBS, glutamine, non-essential amino acids, penicillin/streptomycin at 0.15, 0.2 and 0.3 million cells per ml for human, mouse, and rat GPR40, respectively. […] The seeded plates were incubated overnight at 37 C.
On the day of the experiment, the growth media was removed from the assay by gently patting the assay plates on an absorbent sheet and 10 μl of IP1 stimulation buffer (Cis Bio IP-one Tb HTRF kit) supplemented with 50 mM LiCl is added to each well. Test compounds dissolved in DMSO were serially diluted in ½ log increments starting from 2 mM or 0.2 mM and 50 nl of the compound dilution was acoustically added to each well (final starting concentration 10 μM or 1 μM). Plates were then incubated for 60 minutes at room temperature and 10 μl of detection buffer (prepared as described in the Tb kit) is added to each well. The plates are then incubated one additional hour at room temperature. […] For each assay, a standard curve plate in which IP1 is titrated is also included. […] The percent activity at each concentration of test compound is determined using 0% activation (basal activity) determined in those wells that contain DMSO alone, while 100% activity is determined in wells that contained a concentration of a partial allosteric agonist know to activate GPR40. The % activity is then plotted versus the concentration of test compound and the dose response curve fitted to a standard 4-parameter non-linear regression model using a custom in-house developed software package (Merck & Co., Inc., MRL, Kenilworth, NJ, USA). Maximal % activity and EC50 are then determined for each test compound.

[3] = target: T2, human GPR40; assay: GPR40 binding assay, partial agonist tracer [3H]L358; set-up: expressed in transfected cells; host or cells: CHO / CHO-K1 cells, membrane preparation; settings: for % Bound Normalized to 100 / %Bound: radioligand L-001533358;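 as to %Bound: 100% is tracer binding with DMSO alone and 0% is full displacement by a standard compound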
Description: Two small molecule tracers, the partial agonist [3H][…] and the AgoPAM [3H]25, are used to measure compound affinity at each site as described previously. Because of the allosteric coupling of the two sites and the nature of the assay, addition of a compound will either displace (binds to same site) or augment (binds to allosterically coupled site) radiotracer. Membranes expressing GPR40 were prepared from CHO cells stably expressing human GPR40. […] Sigma P8830) and were homogenized in 50 ml aliquots with a motor-driven glass Dounce homogenizer, 15 strokes at 1900 rpm on wet ice, repeating once. Homogenates were centrifuged at 2200 rpm for 10 min at 4°C. Supernatants were carefully removed and pooled. Homogenization and centrifugation were repeated until the debris pellet was translucent to maximize membrane recovery. Supernatants were then centrifuged at […] rpm for 20 min. at 4°C. […] Protein concentration was determined by Pierce BCA kit. […] The beads and membrane mixture is then vigorously mixed for 30 minutes at room temperature prior to addition to the assay. […] Next, 15 μl of the radioligand and 35 μl of the beads/membranes solution is added to each well. The assay plates are then sealed and incubated for 30 minutes at room temperature on an orbital shaker. The plates are allowed to settle for 16 hours and then counted on a TopCount scintillation counter (PE). […] Maximal % bound and IC50 are then determined for each test compound. 5 μg/well membrane together with 200 μg/well of PVT WGA SPA beads (GE #RPNG-0001) were suspended in a white 96 well plate with a final concentration of 50 μl/well in assay buffer (50 mM Tris, 10 mM MgCl2, and 2 mM EDTA). […] The plate is briefly mixed and incubated for 3-18 h at room temperature, before it is read on a MicroBeta plate counter (Perkin Elmer, MS, USA).

[4] = target: T3, rat GPR40 (Rattus norvegicus, UniProt Q8K3T4); assay: Rat GPR40 IP1 accumulation assay; assay type: cell-based; settings: for Efficacy (% Activation), Rat: maximal % activity vs in-house partial agonist control
T3 construct: expressed in transfected cells; host or cells: CHO-K1 (methods)
T3 sequence (Q8K3T4 whole entry): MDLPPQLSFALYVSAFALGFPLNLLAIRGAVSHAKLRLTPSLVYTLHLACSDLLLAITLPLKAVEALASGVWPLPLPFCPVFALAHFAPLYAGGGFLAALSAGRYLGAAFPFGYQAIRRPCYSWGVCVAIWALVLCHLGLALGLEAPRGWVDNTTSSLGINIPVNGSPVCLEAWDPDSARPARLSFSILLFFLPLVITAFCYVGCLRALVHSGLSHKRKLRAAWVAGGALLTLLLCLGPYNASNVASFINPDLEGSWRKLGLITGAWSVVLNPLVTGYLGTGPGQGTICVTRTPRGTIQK
How it was run: as §1

[5] = mean ± SD, n = 2–20, IP accumulation, read-out: Potency [EC50, nM] ± SD, Mouse
[6] = mean ± SD, n = 2–20, IP accumulation, read-out: Potency [EC50, nM] ± SD, Human
[7] = mean ± SD, n = 2–20, IP accumulation, read-out: Potency [EC50, nM] ± SD, Rat

With `C[C@H](C(=O)O)[C@H](c1ccc2c(c1)O[C@H](C1CN(Cc3cc(C(F)(F)F)ccc3C(F)(F)F)C1)CC2)C1CC1` [AP3] the “Mouse GPR40 Receptor Activation (%)” value ([1]; dose 1.50E-11 M) was -3.27%, the “Mouse GPR40 Receptor Activation (%)” value ([1]; dose 1.55E-08 M) was 446% and the “Mouse GPR40 Receptor Activation (%)” value ([1]; dose 2.43E-10 M) was 50%. The “Mouse GPR40 Receptor Activation (%)” value ([1]; dose 2.49E-07 M) was 525%, the “Mouse GPR40 Receptor Activation (%)” value ([1]; dose 3.89E-09 M) was 371% and the “Mouse GPR40 Receptor Activation (%)” value ([1]; dose 4.00E-12 M) was -5%. The “Mouse GPR40 Receptor Activation (%)” value ([1]; dose 6.10E-11 M) was 5%, the “Mouse GPR40 Receptor Activation (%)” value ([1]; dose 6.22E-08 M) was 431% and the “Mouse GPR40 Receptor Activation (%)” value ([1]; dose 9.72E-10 M) was 174%. The “%Act, Mouse GPR40, Functional Assay” value ([1]; individual determinations) was 596% and 682% and 213% and 314% and 487% and 456% and 680% and 434% and 501% and 418%, the EC50 ([1]; individual determinations, read-out: EC50 (nM), Mouse GPR40, Functional Assay) was 0.64 nM and 0.73 nM and 1.06 nM and 1.33 nM and 1.52 nM and 2.22 nM and 2.5 nM and 0.46 nM and 0.58 nM and 0.59 nM and the “Efficacy (% Activation), Mouse” value [1] was “(478%)”. For the same compound, the EC50 [1, 5] was 1.2 ± 0.72 nM, the “Human GPR40 Receptor Activation (%)” value ([2]; dose 1.50E-11 M) was -1.6% and the “Human GPR40 Receptor Activation (%)” value ([2]; dose 1.55E-08 M) was 280%. For the same compound, the “Human GPR40 Receptor Activation (%)” value ([2]; dose 2.43E-10 M) was 54%, the “Human GPR40 Receptor Activation (%)” value ([2]; dose 2.49E-07 M) was 306% and the “Human GPR40 Receptor Activation (%)” value ([2]; dose 3.89E-09 M) was 288%. For the same compound, the “Human GPR40 Receptor Activation (%)” value ([2]; dose 4.00E-12 M) was -5%, the “Human GPR40 Receptor Activation (%)” value ([2]; dose 6.10E-11 M) was 7% and the “Human GPR40 Receptor Activation (%)” value ([2]; dose 6.22E-08 M) was 328%. The “Human GPR40 Receptor Activation (%)” value ([2]; dose 9.72E-10 M) was 183%, the “Human GPR40 Receptor Activation (%)” value ([2]; dose 9.95E-07 M) was 328% and the “%Act, HUMAN GPR40, Functional Assay” value ([2]; individual determinations) was 407% and 332% and 338% and 274% and 324% and 328% and 239% and 282% and 383% and 273%. For the same compound, the EC50 ([2]; individual determinations, read-out: EC50 (nM), HUMAN GPR40, Functional Assay) was 0.32 nM and 0.43 nM and 0.46 nM and 0.47 nM and 0.73 nM and 0.8 nM and 0.91 nM and 0.19 nM and 0.24 nM and 0.27 nM, the “Efficacy (% Activation), Human” value [2] was “(318%)” and the EC50 [2, 6] was 0.48 ± 0.25 nM. For the same compound, the “% Bound Normalized to 100” value ([3]; dose 0.318285 nM) was 82.24%, the “%Bound” value ([3]; dose 0.318285 nM) was 88.22% and the “% Bound Normalized to 100” value ([3]; dose 1.00578 nM) was 93.26%. The “%Bound” value ([3]; dose 1.00578 nM) was 99.24%, the “% Bound Normalized to 100” value ([3]; dose 3.17827 nM) was 115.15% and the “%Bound” value ([3]; dose 3.17827 nM) was 121.13%. For the same compound, the “% Bound Normalized to 100” value ([3]; dose 10.0433 nM) was 125.44%, the “%Bound” value ([3]; dose 10.0433 nM) was 131.41% and the “% Bound Normalized to 100” value ([3]; dose 31.7369 nM) was 126.76%. The “%Bound” value ([3]; dose 31.7369 nM) was 132.74%, the “% Bound Normalized to 100” value ([3]; dose 100.289 nM) was 126.17% and the “%Bound” value ([3]; dose 100.289 nM) was 132.15%. For the same compound, the “% Bound Normalized to 100” value ([3]; dose 316.912 nM) was 135.28%, the “%Bound” value ([3]; dose 316.912 nM) was 141.26% and the “% Bound Normalized to 100” value ([3]; dose 1001.44 nM) was 137.19%. For the same compound, the “%Bound” value ([3]; dose 1001.44 nM) was 143.17%, the “% Bound Normalized to 100” value ([3]; dose 3164.56 nM) was 164.81% and the “%Bound” value ([3]; dose 3164.56 nM) was 170.79%. For the same compound, the “% Bound Normalized to 100” value ([3]; dose 10000 nM) was 174.51%, the “%Bound” value ([3]; dose 10000 nM) was 180.49% and the “Rat GPR40 Receptor Activation (%)” value ([4]; dose 1.50E-11 M) was -10%. The “Rat GPR40 Receptor Activation (%)” value ([4]; dose 1.55E-08 M) was 330%, the “Rat GPR40 Receptor Activation (%)” value ([4]; dose 2.43E-10 M) was 24% and the “Rat GPR40 Receptor Activation (%)” value ([4]; dose 2.49E-07 M) was 412%. The “Rat GPR40 Receptor Activation (%)” value ([4]; dose 3.89E-09 M) was 269%, the “Rat GPR40 Receptor Activation (%)” value ([4]; dose 4.00E-12 M) was -6.43% and the “Rat GPR40 Receptor Activation (%)” value ([4]; dose 6.10E-11 M) was -0.311%. The “Rat GPR40 Receptor Activation (%)” value ([4]; dose 6.22E-08 M) was 389%, the “Rat GPR40 Receptor Activation (%)” value ([4]; dose 9.72E-10 M) was 121% and the “Rat GPR40 Receptor Activation (%)” value ([4]; dose 9.95E-07 M) was 389%. For the same compound, the “%Act, Rat GPR40, Functional Assay” value ([4]; individual determinations) was 265% and 529% and 336% and 568% and 267% and 374% and 399% and 444% and 459% and 365% and 466% and 382%, the EC50 ([4]; individual determinations, read-out: EC50 (nM), Rat GPR40, Functional Assay) was 0.79 nM and 0.8 nM and 0.9 nM and 1.01 nM and 1.46 nM and 1.5 nM and 2.03 nM and 2.24 nM and 2.29 nM and 0.57 nM and 0.7 nM and 0.75 nM and the “Efficacy (% Activation), Rat” value [4] was “(405%)”. It also gave an EC50 [4, 7] of 1.3 ± 0.63 nM.
In the case of `O=C1NC(=O)C(C2CCOc3cc(Oc4ccc(C(F)(F)F)cc4Cl)ccc32)S1` (stereo not shown) [MK-2305, reference compound], the “Efficacy (% Activation), Mouse” value [1] is reported as “(157%)”, the EC50 [1, 5] is reported as 2.6 ± 0.8 nM and the “Efficacy (% Activation), Human” value [2] is reported as “(85%)”. For the same compound, the EC50 [2, 6] was 24 ± 13 nM, the “Binding Results, % in parentheses, [^3H]L-358” value ([3]; WT human GPR40, maximal % (not defined)) was “(108%)” and the IC50 ([3]; WT human GPR40, n = 2–13, read-out: Binding Results [IC50, nM], [^3H]L-358) was 17 ± 4.7 nM. The “binding of [^3H]L358” value ([3]; human GPR40 membranes, competition binding) was “displace”, the “Efficacy (% Activation), Rat” value [4] was “(155%)” and the EC50 [4, 7] was 5.2 ± 2.5 nM.
